Source: PubChem BioAssay (NCI)
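96-well plates; 48 h exposure; 5 concentrations. Endpoints by linear interpolation between flanking doses. Not reached: highest tested concentration assigned. The concentration for 50% growth inhibition is given as GI50. TGI: concentration producing complete growth inhibition.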

What was measured:
Assay in all cases: DTP human tumour cell line panel, 48 h
[1] = test system: SNB-19 CNS
[2] = test system: HCT-15 colon
[3] = test system: HT29 colon
[4] = test system: SN12C renal
[5] = test system: COLO 205 colon
[6] = test system: MDA-MB-435
[7] = test system: IGROV1 ovarian
[8] = test system: M14 melanoma
[9] = test system: SF-295 CNS
[10] = test system: OVCAR-3 ovarian

Row | SMILES | GI50 [1] | TGI [1] | GI50 [2] | TGI [2] | GI50 [3] | TGI [3] | GI50 [4] | GI50 [5] | TGI [5] | GI50 [6] | TGI [6] | GI50 [7] | TGI [7] | GI50 [8] | TGI [8] | GI50 [9] | TGI [9] | TGI [4] | TGI [10] | GI50 [10]
1 | COc1cc(Cn2cc3c(c2)-c2oncc2CC3)cc(OC)c1OC | 0.0437 µM | > 100 µM | 0.0415 µM | > 100 µM | 0.0339 µM | > 100 µM | 0.0435 µM | 0.0332 µM | 0.0957 µM | < 0.0107 µM | < 0.0225 µM | 0.0456 µM | 24.8 µM | 0.0274 µM | 38.9 µM | 0.0185 µM | 0.059 µM |  |  | 
2 | CCOC(=O)C=C1CCN(C(=O)c2ccccc2)CC1 |  | > 100 µM |  | > 100 µM |  | > 100 µM |  |  | > 100 µM |  |  |  | > 100 µM |  | > 100 µM |  | > 100 µM | > 100 µM | > 100 µM | 
3 | CN1CCc2c1nc(-c1ccccc1)c1c2N(C)CC1 |  | > 100 µM |  | > 100 µM |  | > 100 µM |  |  | > 100 µM |  |  |  | > 100 µM |  | > 100 µM |  | > 100 µM | > 100 µM | > 100 µM | 
4 | COc1cc2cc(Oc3ccc(NC(=O)Nc4ccc(Cl)c(C(F)(F)F)c4)cc3)c(C)nc2cc1OCCN1CCCCC1 | 1.68 µM | 3.19 µM | 1.25 µM | 2.59 µM |  |  | 1.67 µM | 1.65 µM | 3.33 µM | 1.56 µM | 2.92 µM | 1.48 µM | 2.94 µM | 1.92 µM | 3.78 µM | 1.81 µM | 3.3 µM | 3.26 µM | 3.03 µM | 1.6 µM
5 | Cc1ccc(C(=O)Nc2ccc(S(=O)(=O)O)c3cc(S(=O)(=O)O)cc(S(=O)(=O)O)c23)cc1NC(=O)c1cccc(N)c1 |  | > 100 µM |  | > 100 µM |  | > 100 µM |  |  | > 100 µM |  |  |  | > 100 µM |  | > 100 µM |  | > 100 µM | > 100 µM | > 100 µM | 
6 | CC1=CC(=O)c2c(O)cccc2C1=O |  | 25 µM |  |  |  | 3.46 µM |  |  | 3.39 µM |  | 3.26 µM |  | 3.33 µM |  | 3.3 µM |  | 23.9 µM | 3.39 µM | 2.29 µM | 
7 | CC1=C(C(=O)OCc2ccccc2)C(c2ccc3c(c2)OCO3)n2c(nc3ccccc32)N1 (configuration not stated) | 0.54 µM | > 100 µM | 0.36 µM | > 100 µM | 0.352 µM | > 100 µM |  | 0.417 µM | > 100 µM | 0.0842 µM | 0.351 µM | 0.644 µM | > 100 µM | 0.418 µM | > 100 µM | 0.321 µM | > 100 µM |  | 0.998 µM | 0.235 µM
8 | COc1cccc(OC(=O)c2ccccc2Nc2ccnc(C(F)(F)F)c2)c1 | 3.52 µM | > 100 µM | 2.81 µM | 12 µM | 3.68 µM | > 100 µM | 5.33 µM | 2.22 µM | 5.13 µM |  |  | 23.6 µM | > 100 µM | 1.36 µM | 4.04 µM | 2.51 µM | > 100 µM | 41.2 µM | 10.5 µM | 1.65 µM
